Results on 37 compounds are retold here after patent publication US12552753B2, “Methods and compositions for targeting Tregs using CCR8 inhibitors” (Nanjing Immunophage Biomedical Co., Ltd., priority 2020, dated 2026).

Where a name gives a salt, the structure may show the parent alone. A value given as a limit tells only on which side of the number the result lay.

For one experiment, the target named is CCR8 (Homo sapiens, UniProt P51685). The experiment in a line: Tango assay (Tango-CCR8-Gal4-CHO-K1 cells, CCL1-stimulated, ONE-Glo luminescence). The conditions noted are these: Tango Assay IC50, Inhibition of CCR8 Tango cell in vitro.
CCR8, sequence (P51685 whole entry, the tested form may be a part): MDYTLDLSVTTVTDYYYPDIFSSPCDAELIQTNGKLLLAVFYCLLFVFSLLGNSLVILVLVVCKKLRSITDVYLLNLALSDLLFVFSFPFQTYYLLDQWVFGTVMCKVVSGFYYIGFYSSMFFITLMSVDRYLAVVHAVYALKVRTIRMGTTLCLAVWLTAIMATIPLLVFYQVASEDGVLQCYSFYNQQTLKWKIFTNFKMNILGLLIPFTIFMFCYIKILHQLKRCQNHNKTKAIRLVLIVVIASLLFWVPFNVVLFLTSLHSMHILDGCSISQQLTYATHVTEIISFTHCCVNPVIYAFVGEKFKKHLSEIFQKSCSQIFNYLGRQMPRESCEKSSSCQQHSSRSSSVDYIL
For the compound `Cc1ccccc1C(=O)Nc1ccc(S(=O)(=O)NC(C)c2cccc(C(=O)O)c2)cc1` (stereo not shown) [Compound 54, 3-(1-(4-(2-methylbenzamido)phe-nylsulfonamido)ethyl) benzoic acid], the IC50 is more than 10000 nM.
On the same count and under the same terms, next, `Cc1ccccc1C(=O)Nc1ccc(S(=O)(=O)NC(C)c2nccs2)c2ccccc12` (stereo not shown) [Compound 56, 2-methyl-N-(4-(N-(1-(thiazol-2-yl)ethyl)sulfamoyl)naph-thalen-1-yl)benzamide]: 2790 nM.
Same read-out and setting: next, `Cc1ccccc1C(=O)Nc1ccc(S(=O)(=O)NC(C)C2CCCCC2)c2ccccc12` (stereo not shown) [Compound 57, N-(4-(N-(1-cyclohexylethyl)sulfamo-yl)naphthalen-1-yl)-2-methylbenzamide]: 3 nM.
`Cc1ccccc1C(=O)Nc1ccc(S(=O)(=O)N[C@@H](C)C2CCCCC2)c2ccccc12` [Compound 58, (S)-N-(4-(N-(1-cyclohexylethyl)sulfamo-yl)naphthalen-1-yl)-2-methylbenzamide] displayed an IC50 of 12 nM.
The compound `Cc1ccccc1C(=O)Nc1ccc(S(=O)(=O)N[C@H](C)C2CCCCC2)c2ccccc12` [Compound 59, (R)-N-(4-(N-(1-cyclohexylethyl)sulfamo-yl)naphthalen-1-yl)-2-methylbenzamide] displayed an IC50 of 1.6 nM.
Same read-out and setting: next, `Cc1ccccc1C(=O)Nc1ccc(S(=O)(=O)NC(C)C2CCN(C(=O)OC(C)(C)C)CC2)c2ccccc12` (stereo not shown) [Compound 60, tert-butyl 4-(1-(4-(2-methylbenzamido)naph-thalene-1-sulfonamido)ethyl)piper-idine-1-carboxylate]: 160 nM.
The same measure, in the same setting: next, `CC(=O)N1CCC(C(C)NS(=O)(=O)c2ccc(NC(=O)c3ccccc3C)c3ccccc23)CC1` (stereo not shown) [Compound 62, N-(4-(N-(1-(1-acetylpiperidin-4-yl)ethyl)sulfamoyl)naph-thalen-1-yl)-2-methylbenzamide]: 705 nM.
Take `Cc1ccccc1C(=O)Nc1ccc(S(=O)(=O)NC23CC(C2)C3)c2ccccc12` [Compound 63, N-(4-(N-(bicyclo[1.1.1]pentan-1-yl)sulfamoyl)naphthalen-1-yl)-2-methylbenzamide]: the concentration for half-maximal inhibition (IC50) was more than 10000 nM.
The same measure, in the same setting: next, `CCN(C)C(=O)C12CC(NS(=O)(=O)c3ccc(NC(=O)c4ccccc4C)c4ccccc34)(C1)C2` [Compound 64, N-ethyl-N-methyl-3-(4-(2-methylbenzamido)naph-thalene-1-sulfonamido)bicyclo [1.1.1]pentane-1-carboxamide]: more than 10000 nM; `Cc1ccccc1C(=O)Nc1ccc(S(=O)(=O)NC(C)C2CCN(C(=O)OC(C)(C)C)C2)c2ccccc12` (stereo not shown) [Compound 65, tert-butyl 3-(1-(4-(2-methylbenzamido)naph-thalene-1-sulfonamido)ethyl)pyr-rolidine-1-carboxylate]: 1100 nM; `Cc1ccccc1C(=O)Nc1ccc(S(=O)(=O)NC(C)C2CCCCN2)c2ccccc12` (stereo not shown) [Compound 69A, 2-methyl-N-(4-(N-(1-(piperidin-2-yl)ethyl)sulfamoyl)naph-thalen-1-yl)benzamide]: more than 10000 nM.
Same read-out and setting: next, `Cc1ccccc1C(=O)Nc1ccc(S(=O)(=O)NC(C)c2cccc(NC(=O)OC(C)(C)C)c2)c2ccccc12` (stereo not shown) [Compound 71, tert-butyl (3-(1-(4-(2-methylbenzamido)naph-thalene-1-sulfonamido)ethyl)phe-nyl)carbamate]: 147 nM; `Cc1ccccc1C(=O)Nc1ccc(S(=O)(=O)NC(C)c2cccc(N)c2)c2ccccc12` (stereo not shown) [Compound 72A, N-(4-(N-(1-(3-aminophenyl)ethyl)sul-famoyl)naphthalen-1-yl)-2-methylbenzamide hydrochloride]: 1140 nM.
The same measure, in the same setting: next, `COc1cccc(C(C)NS(=O)(=O)c2ccc(NC(=O)c3ccccc3C)c3ccccc23)c1` (stereo not shown) [Compound 73, N-(4-(N-(1-(3-methoxyphenyl)ethyl)sul-famoyl)naphthalen-1-yl)-2-methylbenzamide]: 764 nM; `Cc1ccccc1C(=O)Nc1ccc(S(=O)(=O)NC(C)CN2CCC(C)CC2)c2ccccc12` (stereo not shown) [Compound 74, 2-methyl-N-(4-(N-(1-(4-methylpiperidin-1-yl)propan-2-yl)sulfamoyl)naphthalen-1-yl)benzamide]: 647 nM.
In the case of `Cc1ccccc1C(=O)Nc1ccc(S(=O)(=O)NC(C)CC2CCCCC2)c2ccccc12` (stereo not shown) [Compound 75, N-(4-(N-(1-cyclohexylpropan-2-yl)sulfamoyl)naphthalen-1-yl)-2-methylbenzamide], the IC50 was 7.6 nM.
With `Cc1ccccc1C(=O)Nc1ccc(S(=O)(=O)NC(C)C2CCCCCC2)c2ccccc12` (stereo not shown) [Compound 76, N-(4-(N-(1-cycloheptylethyl)sulfamo-yl)naphthalen-1-yl)-2-methylbenzamide], the half-maximal inhibitory concentration (IC50) is 1.8 nM.
On the same count and under the same terms, the same measure for `Cc1ccccc1C(=O)Nc1ccc(S(=O)(=O)NC(C)C2CC3CCC2CC3)c2ccccc12` (stereo not shown) [Compound 77, N-(4-(N-(1-(bicyclo[2.2.2]octan-2-yl)ethyl)sulfamoyl)naph-thalen-1-yl)-2-methylbenzamide]: 0.4 nM; for `CC(NS(=O)(=O)c1ccc2[nH]cnc2c1)C1CCCCC1` (stereo not shown) [Compound 78, N-(1-cyclohexylethyl)-1H-benzo[d]imidazole-5-sulfonamide]: more than 10000 nM.
The same measure, in the same setting: the same measure for `CC(NS(=O)(=O)c1ccc2[nH]ncc2c1)C1CCCCC1` (stereo not shown) [Compound 79, N-(1-cyclohexylethyl)-1H-indazole-5-sulfonamide]: more than 1000 nM; for `CC(NS(=O)(=O)c1ccc2[nH]c(=O)[nH]c2c1)C1CCCCC1` (stereo not shown) [Compound 80, N-(1-cyclohexylethyl)-2-oxo-2,3-dihydro-1H-benzo[d]imidazole-5-sulfonamide]: more than 10000 nM; for `Cc1ccccc1C(=O)Nc1ccc(S(=O)(=O)NC(C)C(C)C)c2ccccc12` (stereo not shown) [Compound 81, 2-methyl-N-(4-(N-(3-methylbutan-2-yl)sulfamoyl)naphthalen-1-yl)benzamide]: 142 nM.
Turning to `Cc1ccccc1C(=O)Nc1ccc(S(=O)(=O)NC(C)C(C)(C)C)c2ccccc12` (stereo not shown) [Compound 82, N-(4-(N-(3,3-dimethylbutan-2-yl)sulfamoyl)naphthalen-1-yl)-2-methylbenzamide], the IC50 was 33 nM.
On the same count and under the same terms, next, `Cc1ccccc1C(=O)Nc1ccc(S(=O)(=O)NC(C)C(=O)N2CCC(C)CC2)c2ccccc12` (stereo not shown) [Compound 83, 2-methyl-N-(4-(N-(1-(4-methylpiperidin-1-yl)-1-oxopropan-2-yl)sulfamoyl)naphthalen-1-yl)benzamide]: more than 10000 nM.
In turn, `Cc1ccccc1C(=O)Nc1ccc(S(=O)(=O)NC(C)C23CC4CC(CC(C4)C2)C3)c2ccccc12` (stereo not shown) [Compound 84, N-(4-(N-(1-((3r,5r,7r)-adamantan-1-yl)ethyl)sulfamoyl)naph-thalen-1-yl)-2-methylbenzamide] returned an IC50 of 0.2 nM.
`Cc1ccccc1C(=O)Nc1ccc(S(=O)(=O)NC2CCc3nc(N)sc3C2)c2ccccc12` (stereo not shown) [Compound 85, N-(4-(N-(2-amino-4,5,6,7-tetrahydrobenzo[d]thia-zol-6-yl)sulfamoyl)naphthalen-1-yl)-2-methylbenzamide]: the IC50 came out at 351 nM.
Take `CC(=O)N1CCOC(C(C)NS(=O)(=O)c2ccc(NC(=O)c3ccccc3C)c3ccccc23)C1` (stereo not shown) [Compound 86, N-(4-(N-(1-(4-acetylmorpholin-2-yl)ethyl)sulfamoyl)naph-thalen-1-yl)-2-methylbenzamide]: the 50% inhibitory concentration (IC50) was determined as 2300 nM.
`CC(=O)NC1CCc2cc(S(=O)(=O)NC(C)C3CCCCC3)ccc21` (stereo not shown) [Compound 87, N-(5-(N-(1-cyclohexylethyl)sulfam-oyl)-2,3-dihydro-1H-inden-1-yl)acetamide]: the IC50 is more than 10000 nM.
Regarding `CC(NS(=O)(=O)c1ccc2c(c1)CCC2NC(=O)c1ccccc1)C1CCCCC1` (stereo not shown) [Compound 88, N-(5-(N-(1-cyclohexylethyl)sulfam-oyl)-2,3-dihydro-1H-inden-1-yl)benzamide], inhibition was half-maximal at 1100 nM (IC50).
The same measure, in the same setting: next, `Cc1ccccc1C(=O)Nc1ccc(S(=O)(=O)NC2CCC23CCN(C(=O)OC(C)(C)C)CC3)c2ccccc12` (stereo not shown) [Compound 89, tert-butyl 1-(4-(2-methylbenzamido)naph-thalene-1-sulfonamido)-7-azaspiro[3.5]nonane-7-carboxylate]: 620 nM.
As for `Cc1ccccc1C(=O)Nc1ccc(S(=O)(=O)NC2CCC23CCNCC3)c2ccccc12` (stereo not shown) [Compound 90, N-(4-(N-(7-azaspiro[3.5]nonan-1-yl)sulfamoyl)naphthalen-1-yl)-2-methylbenzamide], the IC50 was more than 10000 nM.
Still for that read-out and setting: the same measure for `CCCN1CCN(c2cc(NS(=O)(=O)c3ccc(NC(=O)c4ccccc4C)c4ccccc34)ccc2C(=O)O)CC1` [Compound 91, 4-(4-(2-methylbenzamido)naph-thalene-1-sulfonamido)-2-(4-propylpiperazin-1-yl)benzoic acid]: more than 10000 nM.
Same read-out and setting: next, `CCCN1CCN(c2c(F)cccc2NS(=O)(=O)c2ccc(NC(=O)c3ccccc3C)c3ccccc23)CC1` [Compound 92, N-(4-(N-(3-fluoro-2-(4-propylpiperazin-1-yl)phenyl)sulfamoyl)naphthalen-1-yl)-2-methylbenzamide]: more than 10000 nM; `CCCN1CCN(c2ccc(C)c(NS(=O)(=O)c3ccc(NC(=O)c4ccccc4C)c4ccccc34)c2)CC1` [Compound 93, 2-methyl-N-(4-(N-(2-methyl-5-(4-propylpiperazin-1-yl)phenyl)sulfamoyl)naphthalen-1-yl)benzamide]: more than 10000 nM; `CCCN1CCN(c2ccc(F)c(NS(=O)(=O)c3ccc(NC(=O)c4ccccc4C)c4ccccc34)c2)CC1` [Compound 95, N-(4-(N-(2-fluoro-5-(4-propylpiperazin-1-yl)phenyl)sulfamoyl)naphthalen-1-yl)-2-methylbenzamide]: more than 10000 nM.

The same experiment, now with this note: read-out: Tango Assay IC50, Inhibition of CCR8 Tango cell in vitro.
In the case of `Cc1ccccc1C(=O)Nc1ccc(S(=O)(=O)NC(C)C2CCNC2)c2ccccc12` (stereo not shown) [Compound 66, 2-methyl-N-(4-(N-(1-(pyrrolidin-3-yl)ethyl)sulfamoyl)naph-thalen-1-yl)benzamide], the IC50 amounted to 85 nM.
With `Cc1ccccc1C(=O)Nc1ccc(S(=O)(=O)NC(C)C2CCCCN2)c2ccccc12` (stereo not shown) [Compound 69B, 2-methyl-N-(4-(N-(1-(piperidin-2-yl)ethyl)sulfamoyl)naph-thalen-1-yl)benzamide], the IC50 was more than 10000 nM.

By IC50 is commonly meant the point on the concentration scale where inhibition reaches its midpoint.
